{"source": "patent US20240342138A1", "about": "“MICROTUBULE TARGETING AGENTS” (BPGbio, Inc., priority 2023, published 2024)", "assay_type_in_all_cases": "cell-based", "key": {"HCT116 cells": {"system": "HCT116 cells", "test": "Kinetochore assembly, immunocytochemistry / confocal microscopy", "details": "300 nM, 24h", "method": "The HCT116 cells were cultured using DMEM media supplemented with 10% FBS and 1% Pen/Strep. Cells were maintained to a maximum of 80% confluency before being split and plated into coverslips in 12-well plates.\n1. HCT116 cells were plated on Poly-D-Lysine German Glass Coverslips (#1.5, 18 mm)\n2. After 24h cells were treated with 300 nM of Compound 1 and Nocodozole.\n3. After 24h cells were washed briefly with PBS and fixed with warm 4% paraformaldehyde at room temperature for 10 min.\n4. Cells were permeabilized and blocked in 10% goat serum, 0.5% Triton-X in PBS for 1 hr.\n5. Cells were incubated with Primary antibodies overnight.\n6. Washed 3× with PBS for 10 min\n7. Incubated with secondary antibodies at room temperature for 1 hr.\n8. Washed 3× with PBS for 10 min\n9. Coverslips were mounted with ProLong Gold Anti-Fade Mount with DAPI and imaged with Olympus FV1200 MPE Microscope.\n10. Images were collected with identical confocal settings for all of the samples and Z-stacked images were projected with maximal projection mode using Fluor View Software.\n1. Selected cells of interest using the drawing/selection tools (i.e. rectangle, circle, polygon or freeform).\n2. From the Analyze menu selected “Measure.”\n3. Selected region with no fluorescence to be my background.\n4. Repeated these steps for other cells in the field of view\n5. Used the CTCF formula to calculate Mad1 expression:\nCTCF=Integrated Density−(Area of selected cell×Mean fluorescence of background readings)\nMicrographs were imaged using Olympus FV1200 MPE confocal microscope at 63× oil. White arrows indicate dividing cells. Representative images of N=3 biological replicates. Significance in difference of treated HCT116 cells to untreated cells was tested by Student t test (** p<0.01)."}, "A-172 cells": {"system": "A-172 cells", "test": "In vitro potency in glioblastoma cells, ATPlite 1Step (NTRC Oncolines)", "details": "Homo sapiens, FIG. 14A, read-out: In vitro potency (anti-cancer activity)", "from_the_text": "(§1) FIG. 14A-14E show the efficacy of Compound 1 in glioblastoma cell lines in vitro and in a glioblastoma rat model (C6). A) In vitro potency of Compound 1 in four different glioblastoma cell lines as evaluated by Realtime-Glo™ assay (C6, and U87 cells) or ATPlite 1Step™ Perkin Elmer (performed by NTRC Oncolines; T98G and A-172 cells). B) Study design overview: C6 rat glioma cells (3×10^5) were implanted into the right entorhinal cortex/subiculum region of male Sprague Dawley rats and tumor burden was assessed 14 days post inoculation using MRI and animals randomized into […] (4) groups (vehicle control, 5 mg/kg, 10 mg/kg, and 20 mg/kg Compound 1) with 4 animals per group. […] C) Body weights were measured every two days. […]\n(§2) Glioblastoma (GBM) is the most common and highly malignant form of primary brain tumor with a poor prognosis despite advances in treatments. […] Accordingly, the in vitro potency of Compound 1 was examined in four different glioblastoma cell lines as evaluated by Realtime-Glo™ assay (C6, and U87 cells) or ATPlite 1Step™ Perkin Elmer (performed by NTRC Oncolines; T98G and A-172 cells). […] Therefore, the in vivo tumor activity of Compound 1 was next assessed in Sprague Dawley rats implanted with C6 rat glioma cells into the right entorhinal cortex/subiculum region (AP: −7 mm; ML: 4.5 mm, DV: 5 mm). […]"}, "T98G cells": {"system": "T98G cells", "test": "In vitro potency in glioblastoma cells, ATPlite 1Step (NTRC Oncolines)", "details": "Homo sapiens, FIG. 14A, read-out: In vitro potency (anti-cancer activity)", "from_the_text": "as §1, §2"}}}
{"compound": "COc1ccccc1-c1nc(CNC(=O)c2ccccc2OC(F)F)n[nH]1", "note": "[Compound 1, 2-(difluoromethoxy)-N-[[5-(2-methoxyphenyl)-1H-1,2,4-triazol-3-yl]methyl]benzamide]", "values": [{"measurement": "Mitotic spindle formation", "setting": "HCT116 cells; FIG. 4A", "result": "lack of proper mitotic spindle formation"}, {"measurement": "Mad1 signal intensity", "setting": "HCT116 cells; FIG. 4B", "result": "increase in Mad1 signal intensity"}, {"measurement": "IC50", "setting": "A-172 cells", "result": 48, "unit": "nM"}, {"measurement": "IC50", "setting": "T98G cells", "result": 39, "unit": "nM"}]}
